From US20070042967A1, “Proteaseome inhibitors for the treatment of herpesviridae infected individuals” (priority 2002, published 2007)
Where a SMILES comes first, the peptide text is derived from it. The star is where a group is joined. Cbz = O=C(OCc1ccccc1)*; OtBu = CC(C)(C)O*

Columns and labels:
[1] = tested on: ICAM-1 (CD54); experiment: Surface expression of ICAM-1 (CD54) on HELF by flow cytometric analysis; assay type: cell-based, human; conditions: GCV for comparison; AD169 m.o.i.=1
Protocol: Next, we wondered whether MG132 is able to reduce the immune modulatory activity of HCMV. Therefore we measured the levels of extracellular IL-6, IL-8, and RANTES in the supernatants of mock-infected and AD-169-infected HELF (m.o.i. =1) following culture in the presence or absence of increasing amounts of MG132. In parallel, surface expression of ICAM-1 (CD54) was measured by flow cytometric analysis. As expected infection of HELF with AD 169 increased secretion of IL-6, EL-8 and RANTES (data not shown) as well as surface expression of ICAM-1 over time (FIGS. 14A and B). […]
(§1) Cell culture fluids were tested for RANTES using the ELISA KIT from R&D System, Germany, following the manufacturers instructions. […] Surface CD54 amounts were analysed using a FACScalibur analyser and cellquest software (Becton Dickinson, Germany). Data were calculated as A mean fluorescence intensities of CD54 and isotype control antibodies (=specific mean fluorescence intensity, MFI).
MG132-dependent suppression of HCMV-induced ICAM-1 surface expression Uninfected and AD169-infected HELF (m.o.i.=1) were grown in the absence or presence of MG132 or GCV and harvested 24 h (A) or 48 h (B) p.i. for surface ICAM-1 measurement by flowcytometric analysis. The specific MFI of uninfected and untreated control HELF was calculated as 100%. […]

[2] = tested on: IL-8; experiment: Extracellular IL-8 in supernatants of AD169-infected HELF (ELISA); assay type: cell-based, human; conditions: increasing amounts; data not shown
Protocol: (§2) Next, we wondered whether MG132 is able to reduce the immune modulatory activity of HCMV. Therefore we measured the levels of extracellular IL-6, IL-8, and RANTES in the supernatants of mock-infected and AD-169-infected HELF (m.o.i. =1) following culture in the presence or absence of increasing amounts of MG132. In parallel, surface expression of ICAM-1 (CD54) was measured by flow cytometric analysis. As expected infection of HELF with AD 169 increased secretion of IL-6, EL-8 and RANTES (data not shown) as well as surface expression of ICAM-1 over time (FIGS. 14A and B). While virus-induced secretion of IL-6, IL-8, and RANTES was not inhibited by the proteasome inhibitor, but, in some experiments even increased (data not shown), virus-induced surface expression of ICAM-1 was prevented (FIG. 14). […] For comparison, GCV had no influence on virus-induced ICAM-1 expression, but rather sustained its density on the cell surface (FIG. 14, last columns).
(§3) For measurement of IL-6 and EL-8 cell culture supernatants were collected from mock-infected and AD169-infected HELF cultivated in the presence or absence of MG132 or GCV (m.o.i.=1) immediately after adsorption of the virus (day 0) as well as at day 1, 2, 3 and 5 p.i. and tested for IL-6 and EL-8 by Immulite™ semiautomatic. ELISA analysis as described by the manufacturer (DPC Biermann, Germany).

[3] = tested on: HCMV IE1/2 enhancer/promoter; experiment: TNFα stimulation / basal activity of the HCMV IE1/2 enhancer/promoter, CAT reporter (pRR55) in HL-60 cells; assay type: cell-based, HCMV strain Ad169; conditions: for influence on TNFα stimulation of the IE1/2 enhancer/promoter (in words): HL-60, HCMV AD169 promoter
Protocol: As a model for undifferentiated monocyte/granulocyte progenitor cells HL-60, cells (ATCC No. CCL 240) expressing high levels of CD34+ but low levels of typical differentiation antigens like CD11a-c and CD14 on their surface were used. Furthermore, HL-60 cells have retained the ability, to differentiate into granulocytes and monocytes depending on the stimulus. HL-60 cells were grown in RPMI 1640 medium supplemented with 10% fetal calf serum (both certified endotoxin-free, Biochrome, Germany) at 37° C. in a 5% humidified atmosphere. […] The cells were grown up to 1×10^6 cells per ml. HL-60 cells were transiently transfected with the plasmid pRR55 containing the native HCMV strain Ad169 IE1/2 enhancer/promoter region between nucleotides […] and +52 relative to the transcription start site upstream of the chloramphenicol acetyl transferase (CAT) reporter gene (Fickenscher et al., 1989). Plasmid DNA was prepared using the endofree Maxi Kit (QUIAGEN, Germany or Machery & Nagel, Germany) and stored in aliquots at −20° C. Transient transfection was performed using the DEAE transfection protocol (Stein et al., 1993). Per transfection reaction 5×10^5 cells were washed once with FCS-free medium and then resuspendend in 250 μl transfection buffer containing 1×TBS (24 mM Tris-HCl, pH 7.4, 137 mM NaCl, 5 mM KCl, 0.7 mM CaCl2, 0.5 mM MgCl2, 0.6 mM Na2HPO4), 2.5 μg plasmid DNA (1 μg/μl ) and 5 mg/ml DEAE dextran (Pharmacia-Amersham, Germany). To avoid differences in transfection efficiency, cells for parallel probes were transfected in one reaction and splitted after transfection. Transfection occurred for 1 h at 37° C. After that the cells were washed once with FCS-free RPMI 1640 medium and resuspended in medium containing 10% FCS at a concentration of 5×10^5 cells/5 ml. MG-132 (Calbiochemie, Germany) was dissolved in ethanol (5 μg/μl) and stored in aliqotes at −20 ° C. MG-132 was added into the medium at time zero after transfection and 1 h before TNFα (5 ng/ml, human recombinant TNFα; PAN, Germany, stored in aliquots containing 10 μg/μl at −80° C.). The cells were harvested 48 h after transfection, washed once with PBS and resuspended in 70 μl CAT buffer 1 (0.25 M Tris/HCl, pH 7.8, 0.5 mM EDTA). After 10 min of incubation on ice, cell extracts were prepared by repeated frozen/thawing of the cells (routinely 5 times), 10 min incubation at 65 ° C. to inactivate isoenzymes. Cell debris was removed by centrifugation at 12000 rpm for 10 min in an Eppendorf centrifuge. Cell extracts were measured for their protein concentrations using the method of Bradford (Bradford, 1976) and Bradford reagent (Sigma, Germany). Equal quantities of protein were used in the CAT-assay as described by Gorman et al., 1982. 20 μl lysates were incubated with [^14C]chloramphenicol (Hartman Analytic, Germany) and acetyl-CoA (Sigma, Germany) at 37° C. Reaction was stopped by extraction with ethylacetat (Merck, Germany). The acetylated products were quantified after separation by thin-layer chromatography using a thin layer scintillator. […] In the presence of 0.1 μg/ml MG-132 reduced TNFα stimulation by 50% (FIG. 1).
The reporter gene plasmid pRR55 contains the whole HCMV IE1/2 enhancer/promoter region between nucleotides +52 and −637 with respect to the IE1 transcriptions start site, upstream of the chloramphenicol acetyltransferase (CAT) gene [Fickenscher H, Stamminger T, Riiger R & Fleckenstein B. The role of a repetetive palindrormic sequence element in the human cytomegalovirus major immediate early enhancer. J Gen Virol 1989; 70:107-123.]. The plasmid was kindly provided by T. Stamminger (Eriangen, Germany). For transient transfection of HL-60 cells we used the DEAE dextran method as described earlier [Stein J, Volk H D, Liebenthal C, Kruger D H & Prosch S. Tumor necrosis factor alpha stimulates the activity of the human cytomegalovirus major immediate early enhancer/promoter in immature monocytic cells. J Gen Virol 1993; 74:2333-2338]. […]

[4] = tested on: HSV2; experiment: HSV2 replication in HELF (CPE count); assay type: cell-based, Herpes Simplex Type 2; conditions: not shown
Protocol: (§4) Confluente HELF monolayers in 24 well tissue culture plates were infected with HSV1 strain K or HSV2 at a M.O.I. of 0.001. Virus adsorption was allowed for 1 h at 37° C. After removing the viral inoculate, cells were overlayed with MEM/E, 1% Methocel and incubated for two days at 37° C. in a 5% CO2 atmosphere. MG-132 at the indicated concentrations was added into the medium after adsorption. CPEs were quantified by light microscopy. MG132 had no effect on HSV1 (FIG. 6) and HSV2 (not shown) replication in HELF.

[5] = tested on: HELF; experiment: Toxicity for HELFs; assay type: cell-based, human; conditions: 0.2 μg/ml
Protocol: (§5) Granulocyte/monocyte progenitor like HL-60 cells (ACC CCL 240) were grown in RPMI 1640 medium supplemented with 10% foetal calf serum (FCS, both from Biochrom, Germany and certified to be endotoxin free). Permissive human embryonal lung fibroblasts (HELF) were grown as monolayer in Dulbecco's modified Eagle's medium (BioWhittaker Europa, Belgium) containing 2.0% FCS. Virus stocks of HCMV strain AD169. of laboratory-derived ganciclovir (GCV)-resistant viruses XbaF 4-3-1 and 1117′ 3-1-2 (both are kindly provided from K. K. Biron, Burroughs Wellcome Colo.), HSV 1, strain K, and HSV 2, strain DG (both are patients isolates from the strain collection of this institute) were prepared from the supernatant of infected cell cultures and stored in liquid nitrogen. For standard plaque reduction assays as well as for experiments with immunoblot analysis HELF were seeded into 25 cm^2 cell culture flasks. For preparation of cytosolic and nuclear extracts cells were seeded into 100 cm^2 culture flasks. Generally, confluent monolayers were infected at an multiplicity of infection (m.o.i.) of 0.0002 for standard plaque reduction assay and a m.o.i. of 1 for immunoblot analysis, for preparation of cytosolic and nuclear extracts as well as for measurement of cytokine, chemokine and adhesion molecules in cell culture supernatant. […]

[6] = tested on: HL-60 cells; experiment: Cytotoxic effects on HL-60 cells; assay type: cell-based; conditions: at 0.5 and 0.1 μg/ml
Protocol: as §5

[7] = tested on: HSV1 strain K; experiment: HSV1 replication in HELF (CPE count); assay type: cell-based, Herpes Simplex Type 1; conditions: 0.2 to 0.01 μg/ml (0.42 to 0.021 μM)
Protocol: as §4

[8] = tested on: HCMV AD169; experiment: HCMV AD169 replication in human embryonal lung fibroblasts (CPE / IE staining, day 5 p.i.); assay type: cell-based, human cytomegalovirus
Description: Human embryonal lung fibroblasts (HELF), one of the target cells of HCMV in vivo, are fully permissive for HCMV replication in vitro. For infection experiments the laboratory adapted strain AD169 was propagated on HELFs. Virus stocks prepared from the overlay of infected cells showing 100% cytopathic effect (CPE) by ultra centrifugation were stored in liquid N2. Confluent HELF monolayer in 50 cm^2 flasks were infected with AD169 at a multiplicity of infection (M.O.I.) of 0.01. Adsorption of the virus was allowed for 1 hour at 37° C. After that the monolayer was overlayed with MEM containing 4.5% FCS. Medium was free of or substituted with the proteasome inhibitor at the indicated concentration. Virus cultures were cultivated for 5 days without changing the medium. On day five p.i. virus replication, was quantified by the number of CPE visible in inverse light microscope. For quantification cells were stained with an HCMV-specific antibody recognising the IE proteins IE1 and IE2 (clone E13, Harlan Sera-tab, Loughborough, GB, 1:5000), goat anti-mouse HRP-conjugated IgG (1:4000; Boehringer Mannheim, Indianapolis, Ind., USA) as secondary antibody and the AEC staining kit (Sigma, Germany) which gives a reed nuclear staining of infected cells.
Granulocyte/monocyte progenitor like HL-60 cells (ACC CCL 240) were grown in RPMI 1640 medium supplemented with 10% foetal calf serum (FCS, both from Biochrom, Germany and certified to be endotoxin free). Permissive human embryonal lung fibroblasts (HELF) were grown as monolayer in Dulbecco's modified Eagle's medium (BioWhittaker Europa, Belgium) containing 2.0% FCS. Virus stocks of HCMV strain AD169. of laboratory-derived ganciclovir (GCV)-resistant viruses XbaF 4-3-1 and 1117′ 3-1-2 (both are kindly provided from K. K. Biron, Burroughs Wellcome Colo.), HSV 1, strain K, and HSV 2, strain DG (both are patients isolates from the strain collection of this institute) were prepared from the supernatant of infected cell cultures and stored in liquid nitrogen. […]

[9] = tested on: IL-6; experiment: Extracellular IL-6 in supernatants of AD169-infected HELF (ELISA); assay type: cell-based, human; conditions: increasing amounts; data not shown
Protocol: as §2, §3

[10] = tested on: RANTES; experiment: Extracellular RANTES in supernatants of AD169-infected HELF (ELISA); assay type: cell-based, human; conditions: increasing amounts; data not shown
Protocol: as §2, §1

Nc1nc(O)c2ncn(COC(CO)CO)c2n1 [GCV, Ganciclovir]
influence on virus-induced ICAM-1 expression [1]: no influence

CC(C)C[C@@H](C=O)NC(=O)[C@H](CC(C)C)NC(=O)[C@H](CC(C)C)NC(=O)OCc1ccccc1 [MG-132, N-carbobenzoxy-L-leucinyl-L-leucinyl-L-leucinal] (Cbz-Leu-Leu-Leu-aldehyde)
virus-induced secretion of IL-8 [2]: not inhibited | reduction of TNFα stimulation ([3]; 0.1 μg/ml, HL-60, TNFα 5 ng/ml): 50% | decrease of TNFa-mediated stimulation ([3]; 0.8 μM, HL-60): about 80% | concentrations that inhibit basic, TNFα-independent activity of the IE1/2 enhancer/promoter ([3]; HL-60, without TNFα): above 0.5 μg/ml | effect on HSV2 replication in HELF [4]: no effect | toxicity for HELFs [5]: non-toxic | cytotoxic effects on HL-60 cells [6]: no cytotoxic effects | effect on HSV1 replication in HELF [7]: no effect | effect on virus replication ([8]; 0.01 μg/ml (0.016 μM), AD169, HELF): no effect | number of IE-positive cells per foci compared with the untreated control ([8]; 0.1 μg/ml (0.21 μM)): about 50% | number of virus-infected (IE-positive) cells per focus ([8]; 0.2 μg/ml (0.42 μM), untreated 50): 7 cells | virus-induced secretion of IL-6 [9]: not inhibited | virus-induced secretion of RANTES [10]: not inhibited

CC(C)C[C@H](NC(=O)OCc1ccccc1)C(=O)N[C@@H](CC(C)C)C(=O)N[C@H](C=O)Cc1ccccc1 [PS-2, Z-Leu-Leu-Phe-CHO] (Cbz-Leu-Leu-Phe-aldehyde)
influence on TNFα stimulation of the IE1/2 enhancer/promoter (in words) [3]: reduce TNFα stimulation in a concentration-dependent manner

Cbz-IE(OtBu)AL-aldehyde [PS-1]
decrease of TNFα stimulation ([3]; 0.5 to 0.1 μg/ml (0.81 to 0.16 μM), HL-60): about 60% | influence on TNFα stimulation of the IE1/2 enhancer/promoter (in words) [3]: reduce TNFα stimulation in a concentration-dependent manner

N-carbobenzoxy-L-leucinyl-L-leucinyl-L-leucinal [MG-132]
influence on TNFα stimulation of the IE1/2 enhancer/promoter (in words) [3]: decreased TNFα stimulation of the IE1/2 enhancer/promoter in a concentration-dependent manner
